Experimental data: patent US20100292185A1, “BETA-LACTAMASE INHIBITORS” (priority 2009, published 2010)
Counter-ions that a name gives are not always drawn. Like-named read-outs stand apart in the source and are kept apart here.

Assays:
[1] = biological target: T1, SHV-5 β-lactamase (Klebsiella pneumoniae, UniProt P0A3M1); assay: β-lactamase enzyme inhibition assay (nitrocefin substrate), SHV-5; type: biochemical
T1 construct: expressed as native untagged proteins; made in house; host or cells: E. coli BL21(DE3)
T1 sequence (P0A3M1 22-286): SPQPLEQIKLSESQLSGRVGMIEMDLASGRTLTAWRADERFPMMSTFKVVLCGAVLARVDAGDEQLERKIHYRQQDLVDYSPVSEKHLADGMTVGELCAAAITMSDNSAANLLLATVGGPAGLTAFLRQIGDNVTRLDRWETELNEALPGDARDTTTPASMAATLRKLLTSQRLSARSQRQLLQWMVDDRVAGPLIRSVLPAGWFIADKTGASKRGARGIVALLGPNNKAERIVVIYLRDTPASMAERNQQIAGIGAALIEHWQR
Protocol: (§1) Isolation of β-lactamases. For SHV-5, p99 AmpC, KPC-2 and CTX-M15 β-lactamases, E. coli BL21(DE3) bacterial cells carrying expression plasmids (expressed as native untagged proteins) for the individual β-lactamases were grown in 1 L of Superbroth (Teknova Inc. Hollister, Calif.) supplemented with 100 μg/ml kanamycin and 1×5052 (0.5% glycerol, 0.05% glucose and 0.2% α-lactose) at 35° C. for 18-20 hours. Cells were harvested by centrifugation (4,000×g, 4° C., 20 min), and resuspended in 50 ml of 10 mM HEPES pH 7.5 (1/20 of the initial volume). The cells were lysed by sonication (5 pulses of 45 seconds) at 45 W on ice. The lysates were clarified by centrifugation at 10,000×g for 40 minutes at 4° C. Samples were diluted 5-fold in 50 mM sodium acetate pH 5.0, stored overnight at 4° C., after which they were centrifuged at 10,000×g for 30 minutes to clarify, and filtered through 0.45 μm filters. The samples were loaded onto a 5 ml Capto S sepharose cation exchange column (GE Healthcare) pre-equilibrated with 50 mM sodium acetate pH 5.0. The column was washed with 5 column volumes of 50 mM sodium acetate pH 5.0 to wash out unbound protein and a linear gradient of NaCl (0 to 500 mM) was used to elute the protein (over 16 CV) from the column. Fractions were assayed for β-lactamase activity using Centa (Calbiochem, Gibbstown, N.J.) as a reporter β-lactamase substrate for activity in the isolated fractions. Active fractions were pooled, concentrated and further purified by gel filtration chromatography on a Superdex 75 prep grade gel filtration column (GE Healthcare, Piscataway, N.J.) pre-equilibrated in 50 mM Hepes pH 7.5, 150 mM NaCl. Active fractions were pooled concentrated, quantitated by BCA protein determination (Thermo Scientific, Rockford, Ill.), and frozen at −80° C. in 20% glycerol until use.
(§2) β-lactamase Inhibition. To determine the level of inhibition of β-lactamase enzymes, compounds were diluted in PBS at pH 7.0 to yield concentrations between 100 and 0.005 μM in microtiter plates. An equal volume of diluted enzyme stock was added, and the plates were incubated at 37° C. for 10 min. Nitrocefin solution was then dispensed as substrate into each well at a final concentration of 100 μM, and the plates were immediately read with the kinetic program at 486 nm for 10 min on the SPECTRAMAX® Plus^384 (high-throughput microplate spectrophotometer; Molecular Devices Corp., Sunnyvale, Calif.). Maximum rates of metabolism were then compared to those in control wells (without inhibitors), and percentages of enzyme inhibition were calculated for each concentration of inhibitor. The concentration of inhibitor needed to reduce the initial rate of hydrolysis of substrate by 50% (IC50) was calculated as the residual activity of β-lactamase at 486 nm using the SoftMax Pro 5.0 software (Molecular Devices Corp.).
(§3) Using the methodology described above, examples of the current invention were evaluated for their ability to inhibit β-lactamase enzymes. The results of these assays are summarized in Table 2 for representative enzymes across different subtypes (note SHV-5 and CTXM-15 exemplify different subclasses of Ambler Class A Extended Spectrum Beta Lactamases, KPC-2 exemplifies Class A carbapenemases, P99 represents chromosomal Class C AmpC, VIM-2 exemplifies subclass B1 of metallo-β-lactamases, and OXA-23 represents chromosome-encoded Class D oxacillin-hydrolyzing β-lactamases), NT=not tested.

[2] = biological target: T2, CTX-M15 β-lactamase (Escherichia coli, UniProt Q9EXV5); assay: β-lactamase enzyme inhibition assay (nitrocefin substrate), CTXM-15; type: biochemical
T2 construct: expressed as native untagged proteins; made in house; host or cells: E. coli BL21(DE3)
T2 sequence (Q9EXV5 entry or part of it): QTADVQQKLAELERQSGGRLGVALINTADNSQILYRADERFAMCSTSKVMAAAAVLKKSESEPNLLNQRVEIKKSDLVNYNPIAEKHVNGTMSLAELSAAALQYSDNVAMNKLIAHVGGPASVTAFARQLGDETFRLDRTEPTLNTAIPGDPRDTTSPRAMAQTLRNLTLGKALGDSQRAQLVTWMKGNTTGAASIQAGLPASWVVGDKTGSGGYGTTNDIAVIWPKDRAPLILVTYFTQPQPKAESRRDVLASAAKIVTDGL
Protocol: as §1, §2, §3

[3] = biological target: T3, p99 AmpC β-lactamase (Enterobacter cloacae, UniProt P05364); assay: β-lactamase enzyme inhibition assay (nitrocefin substrate), P99 AmpC; type: biochemical
T3 construct: expressed as native untagged proteins; made in house; host or cells: E. coli BL21(DE3)
T3 sequence (P05364 21-381): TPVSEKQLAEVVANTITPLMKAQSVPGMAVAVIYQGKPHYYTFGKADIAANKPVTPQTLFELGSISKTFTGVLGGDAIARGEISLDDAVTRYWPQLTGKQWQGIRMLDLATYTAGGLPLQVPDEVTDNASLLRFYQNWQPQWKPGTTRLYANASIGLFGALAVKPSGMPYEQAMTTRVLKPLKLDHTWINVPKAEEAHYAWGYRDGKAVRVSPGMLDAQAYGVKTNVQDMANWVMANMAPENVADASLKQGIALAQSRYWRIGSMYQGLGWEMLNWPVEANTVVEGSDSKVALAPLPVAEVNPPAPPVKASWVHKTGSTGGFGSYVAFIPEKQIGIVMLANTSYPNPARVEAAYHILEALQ
Protocol: as §1, §2, §3

[4] = biological target: T4, KPC-2 β-lactamase (Klebsiella pneumoniae, UniProt Q9F663); assay: β-lactamase enzyme inhibition assay (nitrocefin substrate), KPC-2; type: biochemical
T4 construct: expressed as native untagged proteins; made in house; host or cells: E. coli BL21(DE3)
T4 sequence (Q9F663 25-293 limits assumed): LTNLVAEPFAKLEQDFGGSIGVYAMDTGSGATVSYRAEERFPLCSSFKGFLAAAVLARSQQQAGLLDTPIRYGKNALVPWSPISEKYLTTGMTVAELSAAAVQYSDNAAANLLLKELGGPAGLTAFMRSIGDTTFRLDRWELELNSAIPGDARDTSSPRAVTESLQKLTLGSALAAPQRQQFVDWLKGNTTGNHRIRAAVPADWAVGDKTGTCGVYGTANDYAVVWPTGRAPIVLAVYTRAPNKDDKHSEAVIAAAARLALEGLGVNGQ
Protocol: as §1, §2, §3

[5] = biological target: T5, VIM-2 metallo β-lactamase (Pseudomonas aeruginosa, UniProt Q9K2N0); assay: β-lactamase enzyme inhibition assay (nitrocefin substrate), VIM-2; type: biochemical; conditions: nitrocefin 100 μM, 37° C., PBS pH 7.0; read-out: VIM-2 IC50
T5 construct: made in house
Protocol: as §1
For VIM-2 metallo (β-lactamase, the procedure was identical with the following exceptions: 1) the protein was not pH adjusted to pH 5 with 50 mM sodium acetate, 2) the chromatography step was changed to a 5 ml Q sepharose anion exchange column pre-equilibrated with 50 mM Hepes pH 7.5, and 3) elution of the protein was achieved by a linear gradient of NaCl (0-600 mM). Finally, the VIM-2 purification required a second run (3rd step) on the Q sepharose anion exchange column to achieve acceptable purity (>90%).
as §2, §3

[6] = biological target: T6, OXA-23 β-lactamase (Acinetobacter baumannii, UniProt Q9L4P2); assay: β-lactamase enzyme inhibition assay (nitrocefin substrate), OXA-23 crude extract; type: biochemical; conditions: nitrocefin 100 μM, 37° C., PBS pH 7.0; read-out: OXA-23 IC50
T6 construct: crude β-lactamase extracts were prepared from 20 ml overnight cultures; endogenous in cells; host or cells: Acinetobacter baumannii cells containing OXA-23 (crude freeze-thaw extract)
T6 sequence (Q9L4P2 18-273): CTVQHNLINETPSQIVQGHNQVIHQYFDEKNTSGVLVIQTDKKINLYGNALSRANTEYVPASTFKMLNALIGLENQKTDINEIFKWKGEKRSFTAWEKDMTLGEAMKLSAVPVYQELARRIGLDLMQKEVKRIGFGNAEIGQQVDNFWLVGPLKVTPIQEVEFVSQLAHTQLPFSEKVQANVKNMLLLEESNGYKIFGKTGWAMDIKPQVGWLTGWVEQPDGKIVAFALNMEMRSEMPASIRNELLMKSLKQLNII
Protocol: For OXA-23 β-lactamase, crude β-lactamase extracts were prepared from 20 ml overnight cultures with shaking. Acenitobacter baumanni cells containing OXA-23 were further diluted 10-fold and grown to mid-log phase (OD at 600 nm, 0.5-0.8) in Mueller-Hinton II (MH-II) broth at 37° C. The cells were pelleted at 5000 g, washed and resuspended in 2 mL PBS pH 7.0. The β-lactamases were extracted by four cycles of freezing and thawing followed by centrifugation. β-lactamase activity in the extracts was measured with the chromogenic cephalosporin nitrocefin. The amount of protein in each β-lactamase preparation was determined by the bicinchoninic acid (BCA) assay.
as §2

[7] = test system: E. coli expressing the Class A ESBL SHV-5; assay: In vitro antibacterial assay of β-lactamase inhibition (broth microdilution MIC), E. coli SHV-5; type: cell-based
Description: (§4) To determine the ability of test compounds to potentiate the inhibition of the growth of bacterial strains producing beta-lactamase enzymes, classic cell based screening assays were employed. Five bacteria strains producing beta-lactamase enzymes were used: K. pneumoniae expressing the Class A Extended Spectrum Beta-Lactamase (ESBL) CTX-M-15, E. coli expressing the Class A ESBL SHV-5, E. cloacae expressing the Class C P99+, K. pneumoniae expressing the Class A carbapenemase KPC-2, and P. aeruginosa expressing the Class B metallo β-lactamase VIM-2. In order to evaluate the ability of test compounds to inhibit beta-lactamase activity, Applicants used a modification of the broth microdilution assay. The assay was conducted in Cation Adjusted Mueller Hinton Broth (CAMHB, BD # 212322, BD Diagnostic Systems, Sparks, Md.). Bacteria strains were grown for 3-5 hours in CAMBH broth. All five strains were grown in presence of 50 μg/mL ampicillin to ensure resistance is maintained. In the meantime, test compounds were diluted in DMSO to a 0.1 mg/mL stock. The compounds were added to a microtiter plate and were diluted in 2-fold serial dilutions in CAMHB in a final concentration range of 8 μg/mL to 0.015 μg/ml. […] Each of these compound plates are made in quadruplicate, one for each bacteria strain. In addition to the titration of test compounds the MICs of a panel of cephalosporins is also tested to ensure the strains are behaving consistently from test to test. Once the test compound and cephalosporin are added the plates can be inoculated. Inocula are conducted according to CLSI broth microdilution method. After inoculation the plates are incubated for 16-20 hours at 37° C. then the Minimal Inhibitory Concentration (MIC) of the test compound is determined visually.
(§5) Using the methodology described above, examples of the current invention were evaluated for their ability to inhibit the growth of β-lactamase producing bacteria in the presence of a β-lactam antibiotic.

[8] = test system: K. pneumoniae expressing the Class A Extended Spectrum Beta-Lactamase (ESBL) CTX-M-15; assay: In vitro antibacterial assay of β-lactamase inhibition (broth microdilution MIC), K. pneumoniae CTX-M-15; type: cell-based
Description: as §4, §5

[9] = test system: E. cloacae expressing the Class C P99+; assay: In vitro antibacterial assay of β-lactamase inhibition (broth microdilution MIC), E. cloacae P99+; type: cell-based
Description: as §4, §5

[10] = test system: K. pneumoniae expressing the Class A carbapenemase KPC-2; assay: microbe, parasite or virus in culture; type: cell-based
Description: as §4, §5

[11] = test system: P. aeruginosa expressing the Class B metallo β-lactamase VIM-2; assay: In vitro antibacterial assay of β-lactamase inhibition (broth microdilution MIC), P. aeruginosa VIM-2; type: cell-based; conditions: in presence of Ceftazidime 16 μg/mL (Examples 1-56)
Description: as §4, §5

[12] = in presence of Ceftazidime 8 μg/ml (Examples 1-56)
[13] = nitrocefin 100 μM, 37° C., PBS pH 7.0, read-out: P99 AmpC IC50
[14] = in presence of Piperacillin 16 μg/ml (Examples 57-65)

Row | Molecule | IC50 [1] [nM] | IC50 [2] [nM] | IC50 [3] [nM] | IC50 [4] [nM] | IC50 [5] [nM] | IC50 [6] [nM] | MIC of example compound, E. coli SHV-5 [7, 12] [µg/mL] | MIC of example compound, K. pneumoniae CTX-M-15 [8, 12] [µg/mL] | MIC of example compound, E. cloacae P99+ [9, 12] [µg/mL] | MIC of example compound, K. pneumoniae KPC-2 [10, 12] [µg/mL] | IC50 [3, 13] [nM] | MIC of example compound, P. aeruginosa VIM-2 [11] [µg/mL] | MIC of example compound, E. coli SHV-5 [7, 14] [µg/mL] | MIC of example compound, K. pneumoniae CTX-M-15 [8, 14] [µg/mL] | MIC of example compound, E. cloacae P99+ [9, 14] [µg/mL] | MIC of example compound, K. pneumoniae KPC-2 [10, 14] [µg/mL] | IC50 ([1]; nitrocefin 100 μM, 37° C., PBS pH 7.0, read-out: SHV-5 IC50) [nM] | IC50 ([2]; nitrocefin 100 μM, 37° C., PBS pH 7.0, read-out: CTXM-15 IC50) [nM] | IC50 ([4]; nitrocefin 100 μM, 37° C., PBS pH 7.0, read-out: KPC-2 IC50) [nM]
1 | O=C(N[C@@H](Cc1cccc(C(=O)O)c1O)B(O)O)c1ccc(CN2CCNCC2)cc1 [Example 5, 2(R)-3-[2-(4-(1-piperazinylmethyl)benzoylamino)-2-borono-ethyl]-2-hydroxy-benzoic acid Hydrochloride] | > 1000 | 6 | 1 | 1 | 510 | > 1000 | 4 | 1 | 2 | 0.03 | – | – | – | – | – | – | – | – | –
2 | CCNCc1ccc(C(=O)N[C@@H](Cc2cccc(C(=O)O)c2O)B(O)O)cc1.Cl [Example 6, 2(R)-3-[2-(4-(N-ethylaminomethyl)benzoylamino)-2-borono-ethyl]-2-hydroxy-benzoic acid Hydrochloride] | > 1000 | 4 | – | 4 | 57 | > 1000 | 4 | 1 | 0.25 | 0.03 | 1 | – | – | – | – | – | – | – | –
3 | O=C(Cc1ccc(C[n+]2ccccc2)cc1)N[C@@H](Cc1cccc(C(=O)O)c1O)B(O)O [Example 42, formate] | 2 | 4 | 4 | 10 | > 1000 | 153 | – | – | – | – | – | – | – | – | – | – | – | – | –
4 | Nc1ccc(CC(=O)N[C@@H](Cc2cccc(C(=O)O)c2O)B(O)O)cn1 [Example 46, (1R)-1-(6-amino-pyridin-3-yl-acetylamino)-2-(2-hydroxy-3-carboxyphenyl)ethyl-1-boronic acid formate] | 0.7 | 5 | – | 3 | – | 209 | 0.06 | 0.03 | 0.06 | 0.007 | 4 | >8 | – | – | – | – | – | – | –
5 | NCc1ccc(/C(=N/O)C(=O)N[C@@H](Cc2cccc(C(=O)O)c2O)B(O)O)cc1 [Example 53, 3-{2(R)-[2-(4-aminomethyl-phenyl)-2-hydroxyimino-acetylamino]-2-borono-ethyl}-2-hydroxy-benzoic acid hydrochloride] | 29 | 12 | – | 39 | 312 | 350 | – | – | – | – | – | – | – | – | – | – | – | – | –
6 | O=C(Cc1ccc(CNc2ccccn2)cc1)N[C@@H](Cc1cccc(C(=O)O)c1O)B(O)O [Example 57, (1R)-1-{2-[4-(pyridin-2-ylaminomethyl)-phenyl]-acetylamino}-1-[(3-carboxy-2hydroxy)benzyl]-methylboronic acid formate] | 2 | 4 | – | 13 | – | 156 | – | – | – | – | 3 | – | 1 | >8 | 4 | 4 | – | – | –
7 | O=C(O)CNCc1ccc(CC(=O)N[C@@H](Cc2cccc(C(=O)O)c2O)B(O)O)cc1 [Example 58, (1R)-1-(2-{4-[(1-Carboxymethyl-amino)-methyl]-phenyl}-acetylamino)1-[(3-carboxy-2-hydroxy)benzyl]-methylboronic acid formate] | 0.5 | 4 | – | 13 | – | 182 | – | – | – | – | 6 | – | 0.5 | >8 | 2 | 0.5 | – | – | –
8 | (1R)-[4-(1-amino-cyclopropyl)]-benzoylamino]-(3-carboxy-2-hydroxy)benzyl-methylboronic acid formate [Example 22] | – | – | – | – | – | – | 8 | 2 | 0.5 | 0.007 | 34 | >8 | – | – | – | – | > 1000 | 0.6 | 5
